Non-standard residues stand in square brackets, D forms with d. Residues, ends and D or L forms follow the SMILES beside them. *: point of attachment. DOTA = O=C(O)CN1CCN(CC(=O)O)CCN(CC(=O)*)CCN(CC(=O)O)CC1; Bpa = N[C@@H](Cc1ccc(C(=O)c2ccccc2)cc1)C(=O)O; Ala(4-thiazolyl) = N[C@@H](Cc1cscn1)C(=O)O; d2Nal = N[C@H](Cc1ccc2ccccc2c1)C(=O)O; azaGly = NNC(=O)O; Sar = CNCC(=O)O
Tested on: LHRH binding sites on human ovarian cancer cells (EFO-27)
Conditions: not given
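Further: Cell-associated radioactivity on confluent EFO-27 monolayers in 96-well plates, measured by microplate scintillation counting.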

| Structure (SMILES) | EC50 [µM] |
| --- | --- |
| CN(CC(=O)N[C@@H](Cc1c[nH]cn1)C(=O)N[C@@H](Cc1c[nH]c2ccccc12)C(=O)N[C@@H](CO)C(=O)N[C@@H](Cc1c[nH]cn1)C(=O)N[C@H](CCCNC(N)=O)C(=O)N[C@@H](Cc1c[nH]c2ccccc12)C(=O)N[C@@H](Cc1ccc(C(=O)c2ccccc2)cc1)C(=O)N1CCC[C@H]1C(=O)NNC(N)=O)C(=O)CN1CCN(CC(=O)O)CCN(CC(=O)O)CCN(CC(=O)O)CC1 [BRU-2729] | 14.2 |
| CN(CC(=O)N[C@@H](Cc1c[nH]cn1)C(=O)N[C@@H](Cc1c[nH]c2ccccc12)C(=O)N[C@@H](CO)C(=O)N[C@@H](Cc1c[nH]cn1)C(=O)N[C@H](CCCNC(=N)N)C(=O)N[C@@H](Cc1c[nH]c2ccccc12)C(=O)N[C@@H](CCCNC(=N)N)C(=O)N1CCC[C@H]1C(=O)NNC(N)=O)C(=O)CN1CCN(CC(=O)O)CCN(CC(=O)O)CCN(CC(=O)O)CC1 [BRU-2723] (HELM PEPTIDE1{[O=C(O)CN1CCN(CC(=O)O)CCN(CC(=O)[*:2])CCN(CC(=O)O)CC1].[Sar].H.W.S.H.[dR].W.R.P.[O=C(NN[*:1])[*:2]].[am]}$$$$V2.0) | 2.83 |
| N=C(N)NCCC[C@H](NC(=O)[C@H](N)Cc1ccc2ccccc2c1)C(=O)N[C@@H](Cc1c[nH]c2ccccc12)C(=O)N[C@@H](CO)C(=O)N[C@@H](Cc1c[nH]cn1)C(=O)N[C@H](CCCNC(=N)N)C(=O)N[C@@H](Cc1c[nH]c2ccccc12)C(=O)N[C@@H](Cc1ccc(C(=O)c2ccccc2)cc1)C(=O)N1CCC[C@H]1C(=O)NCC(=O)NCCCCNC(=O)CN1CCN(CC(=O)O)CCN(CC(=O)O)CCN(CC(=O)O)CC1 [BRU-2990] | > 30 |
| CN(CC(=O)N[C@@H](Cc1c[nH]cn1)C(=O)N[C@@H](Cc1c[nH]c2ccccc12)C(=O)N[C@@H](CO)C(=O)N[C@@H](Cc1c[nH]cn1)C(=O)N[C@H](CCCNC(=N)N)C(=O)N[C@@H](Cc1c[nH]c2ccccc12)C(=O)N[C@@H](Cc1c(F)c(F)c(F)c(F)c1F)C(=O)N1CCC[C@H]1C(=O)NNC(N)=O)C(=O)CN1CCN(CC(=O)O)CCN(CC(=O)O)CCN(CC(=O)O)CC1 [BRU-2722] | 4.62 |
| CN(CC(=O)N[C@@H](Cc1c[nH]c2ccccc12)C(=O)N[C@@H](CO)C(=O)N[C@@H](Cc1cscn1)C(=O)N[C@H](CCCNC(=N)N)C(=O)N[C@@H](Cc1c[nH]c2ccccc12)C(=O)N[C@@H](Cc1ccc(C(=O)c2ccccc2)cc1)C(=O)N1CCC[C@H]1C(=O)NNC(N)=O)C(=O)CN1CCN(CC(=O)O)CCN(CC(=O)O)CCN(CC(=O)O)CC1 [compound 2740] ({DOTA}-[Sar]WS[Ala(4-thiazolyl)][dR]W[Bpa]P[azaGly]-NH2) | 5.53 |
| CN(CC(=O)N[C@@H](Cc1c[nH]cn1)C(=O)N[C@@H](Cc1c[nH]c2ccccc12)C(=O)N[C@@H](CO)C(=O)N[C@@H](Cc1c[nH]cn1)C(=O)N[C@H](CCCNC(=N)N)C(=O)N[C@@H](Cc1c[nH]c2ccccc12)C(=O)N[C@@H](Cc1ccc(Cl)cc1)C(=O)N1CCC[C@H]1C(=O)NNC(N)=O)C(=O)CN1CCN(CC(=O)O)CCN(CC(=O)O)CCN(CC(=O)O)CC1 [BRU-2725] | 2.26 |
| CC(=O)N[C@@H](Cc1ccc(CNC(=O)CN2CCN(CC(=O)O)CCN(CC(=O)O)CCN(CC(=O)O)CC2)cc1)C(=O)N[C@@H](Cc1c[nH]cn1)C(=O)N[C@@H](Cc1c[nH]c2ccccc12)C(=O)N[C@@H](CO)C(=O)N[C@@H](Cc1c[nH]cn1)C(=O)N[C@H](CCCNC(=N)N)C(=O)N[C@@H](Cc1c[nH]c2ccccc12)C(=O)N[C@@H](Cc1ccc(C(=O)c2ccccc2)cc1)C(=O)N1CCC[C@H]1C(=O)NNC(N)=O [BRU-2881] | 1.38 |
| CN(CC(=O)N[C@@H](Cc1c[nH]cn1)C(=O)N[C@@H](Cc1c[nH]c2ccccc12)C(=O)N[C@@H](CO)C(=O)N[C@@H](Cc1c[nH]cn1)C(=O)N[C@H](CCCNC(=N)N)C(=O)N[C@@H](Cc1c[nH]c2ccccc12)C(=O)N[C@@H](Cc1cccnc1)C(=O)N1CCC[C@H]1C(=O)NNC(N)=O)C(=O)CN1CCN(CC(=O)O)CCN(CC(=O)O)CCN(CC(=O)O)CC1 [BRU-2726] | 17.4 |
| CN(CC(=O)N[C@@H](Cc1c[nH]cn1)C(=O)N[C@@H](Cc1c[nH]c2ccccc12)C(=O)N[C@@H](CO)C(=O)N[C@@H](Cc1c[nH]cn1)C(=O)N[C@H](CCCNC(=N)N)C(=O)N[C@@H](Cc1c[nH]c2ccccc12)C(=O)N[C@H](C(=O)N1CCC[C@H]1C(=O)NNC(N)=O)C1Cc2ccccc2C1)C(=O)CN1CCN(CC(=O)O)CCN(CC(=O)O)CCN(CC(=O)O)CC1 [BRU-2765] | 8.71 |
| N=C(N)NCCC[C@H](NC(=O)[C@@H](Cc1ccc2ccccc2c1)NC(=O)CN1CCN(CC(=O)O)CCN(CC(=O)O)CCN(CC(=O)O)CC1)C(=O)N[C@@H](Cc1c[nH]c2ccccc12)C(=O)N[C@@H](CO)C(=O)N[C@@H](Cc1c[nH]cn1)C(=O)N[C@H](CCCNC(=N)N)C(=O)N[C@@H](Cc1c[nH]c2ccccc12)C(=O)N[C@@H](Cc1ccc(C(=O)c2ccccc2)cc1)C(=O)N1CCC[C@H]1C(=O)NCCCO [compound 2982] | 1.13 |
| N=C(N)NCCC[C@H](NC(=O)[C@@H](Cc1ccc2ccccc2c1)NC(=O)CN1CCN(CC(=O)O)CCN(CC(=O)O)CCN(CC(=O)O)CC1)C(=O)N[C@@H](Cc1c[nH]c2ccccc12)C(=O)N[C@@H](Cc1c[nH]c2ccccc12)C(=O)N[C@@H](Cc1c[nH]cn1)C(=O)N[C@H](CCCNC(=N)N)C(=O)N[C@@H](Cc1c[nH]c2ccccc12)C(=O)N[C@@H](Cc1ccc(C(=O)c2ccccc2)cc1)C(=O)N1CCC[C@H]1C(=O)NNC(N)=O [compound 3114] ({DOTA}-[d2Nal]RWWH[dR]W[Bpa]P[azaGly]-NH2) | 11.5 |

Next, values leading:

| EC50 [µM] | Structure (SMILES) |
| --- | --- |
| 0.93 | N=C(N)NCCC[C@H](NC(=O)[C@@H](Cc1ccc2ccccc2c1)NC(=O)CN1CCN(CC(=O)O)CCN(CC(=O)O)CCN(CC(=O)O)CC1)C(=O)N[C@@H](Cc1c[nH]c2ccccc12)C(=O)N[C@@H](CO)C(=O)N[C@@H](CCCNC(N)=O)C(=O)N[C@H](CCCNC(=N)N)C(=O)N[C@@H](Cc1c[nH]c2ccccc12)C(=O)N[C@@H](Cc1ccc(C(=O)c2ccccc2)cc1)C(=O)N1CCC[C@H]1C(=O)NNC(N)=O [BRU-3030] |
| 0.58 | CN(C(=O)CN1CCN(CC(=O)O)CCN(CC(=O)O)CCN(CC(=O)O)CC1)[C@H](Cc1ccc2ccccc2c1)C(=O)N[C@@H](CCCNC(=N)N)C(=O)N[C@@H](Cc1c[nH]c2ccccc12)C(=O)N[C@@H](CO)C(=O)N[C@@H](Cc1c[nH]cn1)C(=O)N[C@H](CCCNC(=N)N)C(=O)N[C@@H](Cc1c[nH]c2ccccc12)C(=O)N[C@@H](Cc1ccc(C(=O)c2ccccc2)cc1)C(=O)N1CCC[C@H]1C(=O)NNC(N)=O [BRU-2965] |
| 0.23 to 0.5 | CNCC(=O)N[C@@H](CCCNC(=N)N)C(=O)N[C@@H](Cc1c[nH]c2ccccc12)C(=O)N[C@@H](CO)C(=O)N[C@@H](Cc1c[nH]cn1)C(=O)N[C@H](CCCNC(=N)N)C(=O)N[C@@H](Cc1c[nH]c2ccccc12)C(=O)N[C@@H](Cc1ccc(C(=O)c2ccccc2)cc1)C(=O)N1CCC[C@H]1C(=O)NCc1cccc(CNC(=O)CN2CCN(CC(=O)O)CCN(CC(=O)O)CCN(CC(=O)O)CC2)n1 [BRU-3080] |
| 0.23 to 0.5 | CNCC(=O)N[C@@H](CCCNC(=N)N)C(=O)N[C@@H](Cc1c[nH]c2ccccc12)C(=O)N[C@@H](CO)C(=O)N[C@@H](Cc1c[nH]cn1)C(=O)N[C@H](CCCNC(=N)N)C(=O)N[C@@H](Cc1c[nH]c2ccccc12)C(=O)N[C@@H](Cc1ccc(C(=O)c2ccccc2)cc1)C(=O)N1CCC[C@H]1C(=O)NCCCCCNC(=O)CN1CCN(CC(=O)O)CCN(CC(=O)O)CCN(CC(=O)O)CC1 [BRU-3085] |
| 0.22 | CNCC(=O)N[C@@H](CCCNC(=N)N)C(=O)N[C@@H](Cc1c[nH]c2ccccc12)C(=O)N[C@@H](CO)C(=O)N[C@@H](Cc1c[nH]cn1)C(=O)N[C@H](CCCNC(=N)N)C(=O)N[C@@H](Cc1c[nH]c2ccccc12)C(=O)N[C@@H](Cc1ccc(C(=O)c2ccccc2)cc1)C(=O)N1CCC[C@H]1C(=O)NCCOCCN [compound 3007] |
| 0.23 to 0.5 | CNCC(=O)N[C@@H](CCCNC(=N)N)C(=O)N[C@@H](Cc1c[nH]c2ccccc12)C(=O)N[C@@H](CO)C(=O)N[C@@H](Cc1c[nH]cn1)C(=O)N[C@H](CCCNC(=N)N)C(=O)N[C@@H](Cc1c[nH]c2ccccc12)C(=O)N[C@@H](Cc1ccc(C(=O)c2ccccc2)cc1)C(=O)N1CCC[C@H]1C(=O)NCCCCNC(=O)CN1CCN(CC(=O)O)CCN(CC(=O)O)CCN(CC(=O)O)CC1 [BRU-3041] |
| 0.98 | CN(CC(=O)N[C@@H](Cc1c[nH]cn1)C(=O)N[C@@H](Cc1c[nH]c2ccccc12)C(=O)N[C@@H](CO)C(=O)N[C@@H](Cc1c[nH]cn1)C(=O)N[C@H](CCCNC(=N)N)C(=O)N[C@@H](Cc1c[nH]c2ccccc12)C(=O)N[C@@H](Cc1ccc(C(C)(C)C)cc1)C(=O)N1CCC[C@H]1C(=O)NNC(N)=O)C(=O)CN1CCN(CC(=O)O)CCN(CC(=O)O)CCN(CC(=O)O)CC1 [BRU-2634] |

Same assay, conditions: EFO-27 cells, competition with [125I-Tyr8]BRU-2477, 90 min

| Structure (SMILES) | EC50 [µM] |
| --- | --- |
| N=C(N)NCCC[C@H](NC(=O)[C@@H](Cc1ccc2ccccc2c1)NC(=O)CN1CCN(CC(=O)O)CCN(CC(=O)O)CCN(CC(=O)O)CC1)C(=O)N[C@@H](Cc1c[nH]c2ccccc12)C(=O)N[C@@H](CO)C(=O)N[C@@H](Cc1c[nH]cn1)C(=O)N[C@H](CCCNC(=N)N)C(=O)N[C@@H](Cc1c[nH]c2ccccc12)C(=O)N[C@@H](Cc1ccc(C(=O)c2ccccc2)cc1)C(=O)N1CCC[C@H]1C(=O)NCC(=O)NCCCO [compound 2987] | 2.3 |
| N=C(N)NCCC[C@H](NC(=O)[C@@H](Cc1ccc2ccccc2c1)NC(=O)CN1CCN(CC(=O)O)CCN(CC(=O)O)CCN(CC(=O)O)CC1)C(=O)N[C@@H](Cc1c[nH]c2ccccc12)C(=O)N[C@@H](CO)C(=O)N[C@@H](Cc1c[nH]cn1)C(=O)N[C@H](CCCNC(=N)N)C(=O)N[C@@H](Cc1c[nH]c2ccccc12)C(=O)N[C@@H](Cc1ccc(C(=O)c2ccccc2)cc1)C(=O)N1CC[C@H]1C(=O)NNC(N)=O [compound 2993] | 0.38 |

Same assay, conditions: ratio of EC50 to BRU-2813 (EC50=0.33 μM)

| Structure (SMILES) | binding potency, times lower than BRU-2813 |
| --- | --- |
| CN(C(=O)CN1CCN(CC(=O)O)CCN(CC(=O)O)CCN(CC(=O)O)CC1)[C@H](Cc1ccc2ccccc2c1)C(=O)N[C@@H](CCCNC(=N)N)C(=O)N[C@@H](Cc1c[nH]c2ccccc12)C(=O)N[C@@H](CO)C(=O)N[C@@H](Cc1c[nH]cn1)C(=O)N[C@H](CCCNC(=N)N)C(=O)N[C@@H](Cc1c[nH]c2ccccc12)C(=O)N[C@@H](Cc1ccc(C(=O)c2ccccc2)cc1)C(=O)N1CCC[C@H]1C(=O)NNC(N)=O [BRU-2965] | ~2 |

Same assay, conditions: read-out: EC50 μM; Underivatized LHRH peptides and LHRH peptides with chelator on N-terminus; EFO-27 cells

| Structure (SMILES) | EC50 [µM] |
| --- | --- |
| N=C(N)NCCC[C@H](NC(=O)[C@@H](Cc1ccc2ccccc2c1)NC(=O)CC[C@H](CCCCN)NC(=O)CN1CCN(CC(=O)O)CCN(CC(=O)O)CCN(CC(=O)O)CC1)C(=O)N[C@@H](Cc1c[nH]c2ccccc12)C(=O)N[C@@H](CO)C(=O)N[C@@H](Cc1c[nH]cn1)C(=O)N[C@H](CCCNC(=N)N)C(=O)N[C@@H](Cc1c[nH]c2ccccc12)C(=O)N[C@@H](Cc1ccc(C(=O)c2ccccc2)cc1)C(=O)N1CCC[C@H]1C(=O)NCCOCCOCCN [BRU-3100] | 0.14 |
